IC50 data for 14 molecules are collected here from patent publication US8846699B2, “Quinazoline derivatives as a multiplex inhibitor and method for the preparation thereof” (Hanmi Pharm. Co., Ltd., priority 2005, dated 2014).

For orientation: IC50 means the midpoint of a concentration-inhibition curve.

In assay [1] the test system is Human Umbilical Vein Endothelial Cell (HUVEC). The assay is described as follows: Inhibitory effect on growth of human umbilical vein endothelial cell (HUVEC), MTS. Conditions: 10 ng/ml VEGF, absorbance 490 nm. It is filed as cell-based.
In assay [2] the target is VEGFR2 (KDR) (Homo sapiens (Human), UniProt P35968). The assay is described as follows: VEGFR2 (KDR) enzyme assay, fluorescence polarization. The format is biochemical. The conditions noted are these: 5 μM ATP, poly(Glu, Tyr) substrate. A digest of the protocol: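 Buffer: 20 mM HEPES pH 7.4 with 5 mM MgCl2, 2 mM MnCl2 and 50 μM Na3VO4. Compound (0.0001–10 μM) was premixed 10 min with VEGFR2 (200 ng/10 μl), then poly(Glu,Tyr) substrate (10 ng/ml) and 5 μM ATP were added for 1 h at room temperature. EDTA-quenched samples were read by FP after 30 min with antibody and tracer.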

The target in assay [3] is EGFR1 (HER-1) (Homo sapiens (Human), UniProt P00533). The assay is described as follows: EGFR1 (HER-1) enzyme assay, fluorescence polarization. It is filed as biochemical. Conditions: 100 μM ATP, poly(Glu, Tyr) substrate.
Assay [4] relates to skin cancer cell line, A431. The experiment in a line: Inhibitory effect on growth of cancer cell line A431, SRB. The format is cell-based. The conditions noted are these: overexpressed EGFR1 (HER-1). A digest of the protocol: (§1)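 Growth inhibition was measured by sulforhodamine-B staining (absorbance 570 nm) of TCA-fixed cells after 72 h compound exposure at 37 °C, 5% CO2. Test concentrations ran from 10 μM in 10-fold steps to 10^−4, with DMSO below 1%, in 10% FBS DMEM.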

Assay [5] deals with breast cancer cell line, SK-Br3. The experiment in a line: Inhibitory effect on growth of cancer cell line SK-Br3, SRB. The format is cell-based. Conditions: overexpressed EGFR2 (HER-2). A digest of the protocol:
as §1

In assay [6] the test system is colon and rectal cancer cell line, SW-620. The assay is described as follows: Inhibitory effect on growth of cancer cell line SW-620, SRB. It is filed as cell-based. Conditions: not having overexpressed EGFR and EGFR2. In a few lines:
as §1

Sequence of EGFR1 (HER-1) (P00533 25-1210): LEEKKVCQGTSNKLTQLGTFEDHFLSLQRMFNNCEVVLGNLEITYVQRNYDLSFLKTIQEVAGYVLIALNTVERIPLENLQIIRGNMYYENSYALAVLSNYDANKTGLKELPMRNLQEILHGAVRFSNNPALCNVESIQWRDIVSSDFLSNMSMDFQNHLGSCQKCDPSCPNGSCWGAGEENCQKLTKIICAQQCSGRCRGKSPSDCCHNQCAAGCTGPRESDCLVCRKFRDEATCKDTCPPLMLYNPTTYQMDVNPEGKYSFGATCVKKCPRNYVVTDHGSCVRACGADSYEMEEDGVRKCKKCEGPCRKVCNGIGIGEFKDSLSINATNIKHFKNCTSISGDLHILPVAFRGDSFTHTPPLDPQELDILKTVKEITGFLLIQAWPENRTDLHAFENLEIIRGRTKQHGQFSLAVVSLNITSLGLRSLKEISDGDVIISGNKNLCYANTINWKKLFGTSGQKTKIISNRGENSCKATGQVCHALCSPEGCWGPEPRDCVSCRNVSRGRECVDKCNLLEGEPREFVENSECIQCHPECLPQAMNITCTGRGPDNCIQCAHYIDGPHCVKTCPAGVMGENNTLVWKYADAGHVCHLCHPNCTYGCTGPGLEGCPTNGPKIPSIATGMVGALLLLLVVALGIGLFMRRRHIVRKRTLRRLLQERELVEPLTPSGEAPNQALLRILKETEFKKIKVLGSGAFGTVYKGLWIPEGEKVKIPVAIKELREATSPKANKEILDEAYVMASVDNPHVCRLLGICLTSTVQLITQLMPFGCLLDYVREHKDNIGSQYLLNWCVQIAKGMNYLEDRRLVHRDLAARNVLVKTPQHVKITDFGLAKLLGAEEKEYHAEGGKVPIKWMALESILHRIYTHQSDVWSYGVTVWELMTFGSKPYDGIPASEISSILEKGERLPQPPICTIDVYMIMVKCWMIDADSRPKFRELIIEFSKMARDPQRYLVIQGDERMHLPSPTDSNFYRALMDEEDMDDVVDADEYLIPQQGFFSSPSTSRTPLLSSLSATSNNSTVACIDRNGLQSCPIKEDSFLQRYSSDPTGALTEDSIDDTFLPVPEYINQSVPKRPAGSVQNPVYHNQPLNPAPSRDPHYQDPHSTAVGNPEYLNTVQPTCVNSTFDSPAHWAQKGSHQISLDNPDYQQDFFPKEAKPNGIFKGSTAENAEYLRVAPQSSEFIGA
Sequence of VEGFR2 (KDR) (P35968 20-1356): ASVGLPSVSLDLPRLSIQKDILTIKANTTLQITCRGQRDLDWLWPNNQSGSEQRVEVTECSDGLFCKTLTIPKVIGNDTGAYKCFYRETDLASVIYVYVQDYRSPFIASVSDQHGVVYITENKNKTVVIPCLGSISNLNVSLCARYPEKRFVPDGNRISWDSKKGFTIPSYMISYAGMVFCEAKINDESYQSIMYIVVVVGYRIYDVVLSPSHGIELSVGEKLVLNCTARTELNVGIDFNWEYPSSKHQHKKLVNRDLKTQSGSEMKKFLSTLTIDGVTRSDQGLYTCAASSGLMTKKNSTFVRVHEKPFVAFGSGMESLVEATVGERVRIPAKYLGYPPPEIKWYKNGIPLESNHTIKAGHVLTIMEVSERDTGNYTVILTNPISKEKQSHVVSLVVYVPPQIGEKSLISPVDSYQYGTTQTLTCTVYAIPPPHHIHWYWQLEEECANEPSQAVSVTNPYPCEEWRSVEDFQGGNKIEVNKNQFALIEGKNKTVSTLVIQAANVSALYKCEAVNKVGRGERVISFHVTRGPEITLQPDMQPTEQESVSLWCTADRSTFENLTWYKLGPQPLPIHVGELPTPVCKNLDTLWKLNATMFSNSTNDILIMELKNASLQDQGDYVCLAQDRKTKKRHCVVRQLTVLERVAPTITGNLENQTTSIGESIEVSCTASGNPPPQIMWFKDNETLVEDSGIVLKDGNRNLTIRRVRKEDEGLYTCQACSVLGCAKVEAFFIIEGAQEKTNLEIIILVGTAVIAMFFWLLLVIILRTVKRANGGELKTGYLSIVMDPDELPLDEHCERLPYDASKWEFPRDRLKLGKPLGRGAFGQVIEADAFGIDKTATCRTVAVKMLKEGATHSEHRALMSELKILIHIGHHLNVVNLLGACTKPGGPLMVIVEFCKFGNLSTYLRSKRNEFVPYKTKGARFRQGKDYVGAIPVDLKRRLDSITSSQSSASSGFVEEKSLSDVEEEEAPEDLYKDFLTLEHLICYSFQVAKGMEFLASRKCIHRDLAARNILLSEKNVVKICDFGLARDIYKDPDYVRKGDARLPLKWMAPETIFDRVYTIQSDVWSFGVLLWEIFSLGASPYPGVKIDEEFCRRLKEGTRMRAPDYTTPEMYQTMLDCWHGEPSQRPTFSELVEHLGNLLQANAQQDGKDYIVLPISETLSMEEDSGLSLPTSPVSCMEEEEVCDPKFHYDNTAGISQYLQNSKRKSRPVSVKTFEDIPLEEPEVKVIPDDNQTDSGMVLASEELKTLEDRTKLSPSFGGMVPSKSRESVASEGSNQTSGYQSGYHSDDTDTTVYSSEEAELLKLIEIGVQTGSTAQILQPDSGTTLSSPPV

For the molecule `C=CC(=O)Nc1cc2c(Nc3ccc(Br)cc3F)ncnc2cc1OCC1CCN(C(=O)CS(C)(=O)=O)CC1` [Example 3, N-{4-(4-bromo-2-fluoro-phenylamino)-7-[1-(2-methanesulfonyl-acetyl)-piperidin-4-ylmethoxy]-quinazolin-6-yl}-acrylamide], the IC50 in assay [1] (Homo sapiens, 96 h) amounted to 90 nM; in assay [2], 108 nM; in assay [3] it was 26 nM; in assay [4] (Homo sapiens, A-431, 72 h), 48 nM; in assay [5] (Homo sapiens, SK-BR-3, 72 h), 216 nM; in assay [6] (Homo sapiens, 72 h) it was 6310 nM.

Regarding `C=CC(=O)Nc1cc2c(Nc3ccc(Br)cc3F)ncnc2cc1OCCNC(=O)CN1CCC1` [Example 110, N-[7-[2-(2-azetidin-1-yl-acetylamino)-ethoxy]-4-(4-bromo-2-fluoro-phenylamino)-quinazolin-6-yl]-acrylamide], the IC50 in assay [1] (Homo sapiens, 96 h) stood at 956 nM; in assay [2], 951 nM; in assay [3], 987 nM; in assay [4] (Homo sapiens, A-431, 72 h), 1020 nM; in assay [5] (Homo sapiens, SK-BR-3, 72 h) it was 1360 nM; in assay [6] (Homo sapiens, 72 h) it was 4590 nM.

As for `C=CC(=O)Nc1cc2c(Nc3cc(Cl)c(Br)cc3F)ncnc2cc1OCCNC(=O)CN(C)C` [Example 135, N-{4-(4-bromo-5-chloro-2-fluoro-phenylamino)-7-[2-(2-dimethylamino-acetylamino)-ethoxy]-quinazolin-6-yl}-acrylamide], the IC50 turned out to be 1310 nM in assay [1] (Homo sapiens, 96 h); 784 nM in assay [2]; 9 nM in assay [3]; 11 nM in assay [4] (Homo sapiens, A-431, 72 h); 42 nM in assay [5] (Homo sapiens, SK-BR-3, 72 h); 2430 nM in assay [6] (Homo sapiens, 72 h).

With `C=CC(=O)Nc1cc2c(Nc3ccc(Br)cc3F)ncnc2cc1OCCNC(=O)C(C)CN(C)C` (stereo not drawn) [Example 74, N-{4-(4-bromo-2-fluoro-phenylamino)-7-[2-(3-dimethylamino-2-methyl-propionylamino)-ethoxy]-quinazolin-6-yl}-acrylamide], the IC50 in assay [1] (Homo sapiens, 96 h) was found to be 358 nM; in assay [2], 372 nM; in assay [3], 251 nM; in assay [4] (Homo sapiens, A-431, 72 h), 321 nM; in assay [5] (Homo sapiens, SK-BR-3, 72 h) it was 658 nM; in assay [6] (Homo sapiens, 72 h) it was 726 nM.

For the molecule `C=CC(=O)Nc1cc2c(Nc3ccc(Br)cc3F)ncnc2cc1OCCNC(=O)C(C)N` (stereo not drawn) [Example 173, N-[7-[2-(2-amino-propionylamino)-ethoxy]-4-(4-bromo-2-fluoro-phenylamino)-quinazolin-6-yl]-acrylamide], the IC50 in assay [1] (Homo sapiens, 96 h) came to 213 nM; in assay [2], 165 nM; in assay [3], 18 nM; in assay [4] (Homo sapiens, A-431, 72 h), 38 nM; in assay [5] (Homo sapiens, SK-BR-3, 72 h), 504 nM; in assay [6] (Homo sapiens, 72 h), 10000 nM.

In the case of `C=CC(=O)Nc1cc2c(Nc3ccc(Br)c(Cl)c3F)ncnc2cc1OCCNC(=O)COC` [Example 146, N-{4-(4-bromo-3-chloro-2-fluoro-phenylamino)-7-[2-(2-methoxy-acetylamino)-ethoxy]-quinazolin-6-yl}-acrylamide], the IC50 in assay [1] (Homo sapiens, 96 h) worked out at 365 nM; in assay [2] it was 257 nM; in assay [3], 213 nM; in assay [4] (Homo sapiens, A-431, 72 h), 203 nM; in assay [5] (Homo sapiens, SK-BR-3, 72 h) it was 97 nM; in assay [6] (Homo sapiens, 72 h) it was 2790 nM.

For the molecule `C=CC(=O)Nc1cc2c(Nc3ccc(Br)c(Cl)c3F)ncnc2cc1OCCNC(=O)CO` [Example 149, N-{4-(4-bromo-3-chloro-2-fluoro-phenylamino)-7-[2-(2-hydroxy-acetylamino)-ethoxy]-quinazolin-6-yl}-acrylamide], the IC50 in assay [1] (Homo sapiens, 96 h) was determined as 204 nM; in assay [2], 147 nM; in assay [3], 16 nM; in assay [4] (Homo sapiens, A-431, 72 h), 15 nM; in assay [5] (Homo sapiens, SK-BR-3, 72 h), 41 nM; in assay [6] (Homo sapiens, 72 h), 9560 nM.

Turning to `C=CC(=O)Nc1cc2c(Nc3ccc(Br)c(F)c3F)ncnc2cc1OCCNC(=O)CCN(CC)CC` [Example 125, N-{4-(4-bromo-2,3-difluoro-phenylamino)-7-[2-(3-diethylamino-propionylamino)-ethoxy]-quinazolin-6-yl}-acrylamide], the IC50 in assay [1] (Homo sapiens, 96 h) is 657 nM; in assay [2] it was 218 nM; in assay [3], 19 nM; in assay [4] (Homo sapiens, A-431, 72 h), 22 nM; in assay [5] (Homo sapiens, SK-BR-3, 72 h) it was 242 nM; in assay [6] (Homo sapiens, 72 h), 2980 nM.

`C=CC(=O)Nc1cc2c(Nc3ccc(Br)cc3F)ncnc2cc1OCCNC(=O)C=CCN(C)C` [Example 53, 4-dimethylamino-but-2-enoic acid {2-[6-acryloylamino-4-(4-bromo-2-fluoro-phenylamino)-quinazolin-7-yloxy]-ethyl}-amide]: the IC50 in assay [1] (Homo sapiens, 96 h) was 964 nM; in assay [2] it was 875 nM; in assay [3], 16 nM; in assay [4] (Homo sapiens, A-431, 72 h), 12 nM; in assay [5] (Homo sapiens, SK-BR-3, 72 h), 223 nM; in assay [6] (Homo sapiens, 72 h), 4760 nM.

Regarding `C=CC(=O)Nc1cc2c(Nc3ccc(Br)cc3F)ncnc2cc1OCc1ccncc1` [Example 6, N-[4-(4-bromo-2-fluoro-phenylamino)-7-(pyridin-4-ylmethoxy)-quinazolin-6-yl]-acrylamide], the IC50 in assay [1] (Homo sapiens, 96 h) turned out to be 450 nM; in assay [2] it was 500 nM; in assay [3], 56 nM; in assay [4] (Homo sapiens, A-431, 72 h), 168 nM; in assay [5] (Homo sapiens, SK-BR-3, 72 h), 1350 nM; in assay [6] (Homo sapiens, 72 h), 8460 nM.

On to `C=CC(=O)Nc1cc2c(Nc3ccc(F)c(F)c3F)ncnc2cc1OCCNC(C)=O` [Example 118, N-[7-(2-acetylamino-ethoxy)-4-(2,3,4-trifluoro-phenylamino)-quinazolin-6-yl]-acrylamide], for which the IC50 in assay [1] (Homo sapiens, 96 h) stood at 681 nM; in assay [2] it was 489 nM; in assay [3], 14 nM; in assay [4] (Homo sapiens, A-431, 72 h) it was 15 nM; in assay [5] (Homo sapiens, SK-BR-3, 72 h) it was 79 nM; in assay [6] (Homo sapiens, 72 h), 725 nM.

As for `C=CC(=O)Nc1cc2c(Nc3ccc(Br)c(Cl)c3F)ncnc2cc1OC[C@H](C)NC(=O)CN(C)C` [Example 163, (S)—N-4-(4-bromo-3-chloro-2-fluoro-phenylamino)-7-[2-(2-dimethylamino-acetylamino)-propoxy]-quinazolin-6-yl-acrylamide], the IC50 came out at 735 nM in assay [1] (96 hours); 722 nM in assay [2]; 12 nM in assay [3]; 18 nM in assay [4] (72 hours); 45 nM in assay [5] (72 hours); 10000 nM in assay [6] (72 hours).

Take `C=CC(=O)Nc1cc2c(Nc3ccc(Br)c(Cl)c3F)ncnc2cc1OCCNC(=O)NCCC` [Example 169, N-{4-(4-bromo-3-chloro-2-fluoro-phenylamino)-7-[2-(3-propyl-ureido)-ethoxy]-quinazolin-6-yl}-acrylamide]: the IC50 in assay [1] (Homo sapiens, 96 h) worked out at 233 nM; in assay [2], 128 nM; in assay [3], 26 nM; in assay [4] (Homo sapiens, A-431, 72 h) it was 35 nM; in assay [5] (Homo sapiens, SK-BR-3, 72 h), 67 nM; in assay [6] (Homo sapiens, 72 h) it was 9100 nM.

Take `C=CC(=O)Nc1cc2c(Nc3ccc(Br)cc3F)ncnc2cc1OCCNCC(C)=O` [Example 55, N-{4-(4-bromo-2-fluoro-phenylamino)-7-[2-(2-oxo-propylamino)-ethoxy]-quinazolin-6-yl}-acrylamide]: the IC50 is 359 nM in assay [1] (Homo sapiens, 96 h); 471 nM in assay [2]; 589 nM in assay [3]; 426 nM in assay [4] (Homo sapiens, A-431, 72 h); 437 nM in assay [5] (Homo sapiens, SK-BR-3, 72 h); 4540 nM in assay [6] (Homo sapiens, 72 h).
